Literature values, collected in patent US20140228364A1, “Ophthalmic Compositions Comprising Prostaglandin F2 Alpha Derivatives and Hyaluronic Acid” (priority 2011, published 2014).

Solubility in water, almost insoluble in water:
CCCCCCCC(=O)CC[C@@H]1[C@@H](C/C=C\CCCC(=O)OC(C)C)[C@@H](O)C[C@H]1O [unoprostone isopropyl, 13,14-dihydro-20-ethyl-15-ketoprostaglandin F2α-isopropylester]
CC(C)OC(=O)CCC/C=C\C[C@@H]1[C@@H](/C=C/[C@@H](O)COc2cccc(C(F)(F)F)c2)[C@H](O)C[C@@H]1O [travoprost, 20-ethyl prostaglandin F2α-(+)-fluprostenol isopropyl ester]
CC(C)OC(=O)CCC/C=C\C[C@@H]1[C@@H](/C=C/C(F)(F)COc2ccccc2)[C@H](O)C[C@@H]1O [tafluprost]
CC(C)OC(=O)CCC/C=C\C[C@@H]1[C@@H](CC[C@@H](O)CCc2ccccc2)[C@H](O)C[C@@H]1O [Latanoprost, isopropyl-(Z)-7-[(1R,2R,3R,5S)-3,5-dihydroxy-2-[(3R)-3-hydroxy-5-phenylpentyl]cyclopentyl]-5-heptenoate]
CCCCC[C@H](O)/C=C/[C@H]1[C@H](O)CC(=O)[C@H]1C/C=C\CCCC(=O)O [8-isoprostaglandin E2]
CCNC(=O)CCC/C=C\C[C@@H]1[C@@H](/C=C/[C@@H](O)CCc2ccccc2)[C@H](O)C[C@@H]1O [bimatoprost]
